From PMC12016938, “A small molecule PKCε inhibitor reduces hyperalgesia induced by paclitaxel or opioid withdrawal” (JCI Insight, 2025)
Several values for one entry are separate records, joined by “and”; a condition that tells them apart may be missing. Equal entries are not always repeated.

Test system: self-administration (addictive potential)
Test: I.v. self-administration of CP612, between-session progressive ratio and demand curve
Method: We tested the addictive potential of CP612 by examining the extent to which rats are willing to work to obtain CP612. Rats were initially trained to self-administer either saline, morphine (500 μg/kg/i.v. infusion), or 1 of 3 different doses of CP612 (75, 150, or 300 μg/kg/i.v. infusion) for 4 days at fixed ratio 1 (FR1, where 1 nose poke delivers 1 infusion).
During the second phase, the ratio to obtain an infusion increased geometrically every other day (FR1, FR3, FR6, FR12, FR24, FR48, and FR96).
Data (number of self-infusions) were also fitted in an economic-demand curve, which provides an estimate of the motivation to obtain drugs and their addictive potential ([20]). We measured elasticity (α), which is the relative change in consumption as a function of price (i.e., ratio of nose pokes required to obtain an infusion). Behavior is considered “inelastic” when consumption is insensitive to price and “elastic” when consumption is sensitive to price. We also measured Pmax, which is the price at which intake switches from inelastic to elastic. […] (Figure 8B).
Rats not immediately anesthetized were eliminated from the study.
Following this initial acquisition phase at FR1, the ratio to obtain the drug was increased geometrically every other day: FR3 (3 nose pokes are required to obtain 1 infusion of morphine), FR6, FR12, FR24, FR48, and FR96. This allows for analysis of drug consumption as a function of “price” using demand curves for behavioral economics, which can estimate the motivation to obtain drugs and their “addictive potential” ([20]). For this, data from each rat were fitted to the equation log Q = log Q0 + k (e ^–α(Q0 ^C) – 1), where Q represents consumption (number of self-infusions), and Q0 represents the level of consumption at the lowest price. C represents price for the drug (i.e., the ratio), and k is set to a constant accounting for the estimated range of consumption in logarithmic units (k = 4 in these studies). The symbol α is the relative change in consumption across changes in price (ratio). Behavior is considered “inelastic” when consumption is insensitive to price (i.e., the curve is flat, and consumption is maintained despite increases in price), and it switches to “elastic” when consumption is sensitive to price (i.e., when the curve is steep and consumption declines with increases in price). […] We also compared groups for their average intake in the consumption-price curves by measuring α (elasticity) and Pmax.

N[C@H](CNC(=O)C1(c2ccc(Cl)cc2)CCCC1)c1ccc(C(=O)Nc2ccncc2)cc1 [CP612] was tested, and the “AVG Latency (FR1_D1 to D4)” value (CP612-High, individual rat) was 0.277 and 0.6 and 2.3 and 1.8 and 0.8 and 0.9 and 1.0, the “AVG Latency (FR1_Last 2 FR1 days)” value (CP612-High, individual rat) was 0.051 and 0.179 and 0.9 and 1.8 and 0.219 and 0.171 and the “AVG Latency (FR1_Last 4 FR1 days)” value (CP612-High, individual rat) was 0.076 and 0.283 and 1.5 and 1.8 and 0.8 and 0.9 and 0.53. For the same compound, the “AVG Latency (FR3)” value (CP612-High, individual rat) was 1.2 and 0.116 and 2.8 and 0.5 and 0.236 and 1.4 and 0.326, the “AVG Latency (FR6)” value (CP612-High, individual rat) was 0.64 and 0.4 and 0.643 and 1.9 and 0.8 and 2.5 and 0.6 and the “AVG Latency (FR12)” value (CP612-High, individual rat) was 14.4 and 2.6 and 0.5 and 4.0 and 0.6 and 2.1. For the same compound, the “AVG Latency (FR24)” value (CP612-High, individual rat) was 1.9 and 0.9 and 0.3 and 0.6 and 2.3 and 1.3, the “AVG Latency (FR48)” value (CP612-High, individual rat) was 14.3 and 0.9 and 1.1 and 1.9 and 18.8 and 1.2 and the “AVG Latency (FR96)” value (CP612-High, individual rat) was 13.6 and 1.5 and 0.9 and 12.9 and 2.4 and 0.8. For the same compound, the “D1 Latency (FR1)” value (CP612-High, individual rat) was 0.857 and 1.7 and 5.4 and 2.9 and 0.6 and 0.743, the “D1 Latency (FR3)” value (CP612-High, individual rat) was 2.0 and 0.108 and 0.043 and 0.6 and 0.3 and 0.19 and 0.232 and the “D1 Latency (FR6)” value (CP612-High, individual rat) was 0.65 and 0.1 and 0.9 and 0.7 and 0.8 and 3.8 and 0.275. For the same compound, the “D1 Latency (FR12)” value (CP612-High, individual rat) was 27.0 and 1.2 and 0.527 and 5.7 and 0.283 and 3.2 and 2.2, the “D1 Latency (FR24)” value (CP612-High, individual rat) was 1.3 and 0.7 and 0.338 and 0.9 and 1.7 and 1.4 and the “D1 Latency (FR48)” value (CP612-High, individual rat) was 16.8 and 0.4 and 0.255 and 0.142 and 1.1 and 36.4 and 0.743. The “D1 Latency (FR96)” value (CP612-High, individual rat) was 4.4 and 1.8 and 0.643 and 3.1 and 3.3 and 0.647 and 0.7, the “D2 Latency (FR1)” value (CP612-High, individual rat) was 0.077 and 0.4 and 2.0 and 0.6 and 2.2 and 0.9 and the “D2 Latency (FR3)” value (CP612-High, individual rat) was 0.5 and 0.125 and 5.6 and 0.4 and 0.17 and 2.6. For the same compound, the “D2 Latency (FR6)” value (CP612-High, individual rat) was 0.6 and 0.7 and 0.4 and 3.1 and 0.8 and 1.2 and 0.9, the “D2 Latency (FR12)” value (CP612-High, individual rat) was 1.8 and 4.1 and 0.5 and 2.3 and 0.9 and 1.0 and 2.9 and the “D2 Latency (FR24)” value (CP612-High, individual rat) was 2.5 and 1.2 and 0.257 and 0.283 and 0.355 and 2.9. For the same compound, the “D2 Latency (FR48)” value (CP612-High, individual rat) was 11.8 and 1.4 and 1.9 and 3.7 and 1.1 and 1.2 and 1.7, the “D2 Latency (FR96)” value (CP612-High, individual rat) was 22.7 and 1.2 and 1.1 and 1.6 and 0.9 and 2.4 and the “D3 Latency (FR1)” value (CP612-High, individual rat) was 0.125 and 0.22 and 1.4 and 2.0 and 0.063 and 1.3 and 0.185. The “D4 Latency (FR1)” value (CP612-High, individual rat) was 0.05 and 0.138 and 0.457 and 1.7 and 0.375 and 0.547 and 0.158, the “last Latency (FR1)” value (CP612-High, individual rat) was 0.052 and 0.138 and 0.457 and 1.7 and 0.375 and 0.547 and 0.158 and the “last-1 Latency (FR1)” value (CP612-High, individual rat) was 0.05 and 0.22 and 1.4 and 2.0 and 0.063 and 1.3 and 0.185. The “last-2 Latency (FR1)” value (CP612-High, individual rat) was 0.125 and 0.4 and 2.0 and 0.6 and 2.2 and 0.9, the “last-3 Latency (FR1)” value (CP612-High, individual rat) was 0.077 and 0.4 and 2.0 and 2.9 and 0.6 and 0.9 and the “AVG Latency (FR1_D1 to D4)” value (CP612-Low, individual rats) was 4.9 and 0.7 and 2.4 and 1.7 and 1.1. For the same compound, the “AVG Latency (FR1_Last 2 FR1 days)” value (CP612-Low, individual rats) was 0.358 and 0.6 and 0.284 and 0.9 and 0.159 and 1.0 and 0.2 and 1.2, the “AVG Latency (FR1_Last 4 FR1 days)” value (CP612-Low, individual rats) was 1.9 and 0.8 and 0.222 and 0.443 and 1.2 and 0.5 and 0.6 and the “AVG Latency (FR3)” value (CP612-Low, individual rats) was 0.8 and 1.6 and 4.5 and 0.452 and 0.377 and 4.0 and 0.095 and 0.182. For the same compound, the “AVG Latency (FR6)” value (CP612-Low, individual rats) was 1.5 and 1.4 and 2.2 and 0.323 and 0.9 and 0.163 and 0.233, the “AVG Latency (FR12)” value (CP612-Low, individual rats) was 1.6 and 0.566 and 0.8 and 0.4 and 2.4 and 1.9 and 1.0 and the “AVG Latency (FR24)” value (CP612-Low, individual rats) was 3.5 and 0.6 and 1.0 and 0.8 and 0.426 and 5.1 and 1.2 and 0.7. For the same compound, the “AVG Latency (FR48)” value (CP612-Low, individual rats) was 0.7 and 2.3 and 2.2 and 0.372 and 0.844 and 2.6 and 0.335 and 1.6, the “AVG Latency (FR96)” value (CP612-Low, individual rats) was 1.1 and 0.176 and 4.5 and 0.551 and 1.2 and 0.0585 and 2.6 and 0.259 and the “D1 Latency (FR1)” value (CP612-Low, individual rats) was 12.2 and 0.368 and 2.4 and 7.3 and 1.0 and 3.8 and 1.9 and 0.7. For the same compound, the “D1 Latency (FR3)” value (CP612-Low, individual rats) was 0.425 and 0.5 and 1.0 and 0.458 and 0.7 and 4.6 and 0.155 and 0.173, the “D1 Latency (FR6)” value (CP612-Low, individual rats) was 1.3 and 2.2 and 0.473 and 0.533 and 0.9 and 0.183 and 0.32 and the “D1 Latency (FR12)” value (CP612-Low, individual rats) was 0.9 and 2.3 and 0.7 and 1.3 and 0.66 and 1.0 and 0.6. For the same compound, the “D1 Latency (FR24)” value (CP612-Low, individual rats) was 6.2 and 0.9 and 1.5 and 0.7 and 8.8 and 2.1 and 0.19, the “D1 Latency (FR48)” value (CP612-Low, individual rats) was 1.1 and 1.6 and 3.8 and 0.332 and 0.655 and 0.6 and 0.368 and 0.073 and the “D1 Latency (FR96)” value (CP612-Low, individual rats) was 0.8 and 0.108 and 8.1 and 0.57 and 0.062 and 1.6 and 0.143. For the same compound, the “D2 Latency (FR1)” value (CP612-Low, individual rats) was 4.7 and 1.8 and 0.14 and 0.425 and 1.0 and 0.13 and 1.5 and 0.027, the “D2 Latency (FR3)” value (CP612-Low, individual rats) was 1.1 and 2.8 and 7.9 and 0.445 and 0.067 and 3.5 and 0.035 and 0.2 and the “D2 Latency (FR6)” value (CP612-Low, individual rats) was 1.7 and 0.562 and 4.0 and 0.658 and 0.112 and 0.9 and 0.143 and 0.147. For the same compound, the “D2 Latency (FR12)” value (CP612-Low, individual rats) was 2.2 and 0.8 and 0.4 and 0.355 and 0.1 and 3.4 and 2.9 and 1.5, the “D2 Latency (FR24)” value (CP612-Low, individual rats) was 0.76 and 0.282 and 0.4 and 0.9 and 0.148 and 1.5 and 0.188 and 1.2 and the “D2 Latency (FR48)” value (CP612-Low, individual rats) was 0.337 and 3.0 and 0.6 and 0.4 and 1.0 and 4.6 and 0.3 and 3.2. The “D2 Latency (FR96)” value (CP612-Low, individual rats) was 1.5 and 0.245 and 0.8 and 0.533 and 1.6 and 0.055 and 3.5 and 0.375, the “D3 Latency (FR1)” value (CP612-Low, individual rats) was 2.1 and 0.145 and 0.175 and 0.9 and 0.5 and 2.5 and 0.8 and 0.017 and the “D4 Latency (FR1)” value (CP612-Low, individual rats) was 0.433 and 0.6 and 0.143 and 1.0 and 0.3 and 0.258 and 0.24 and 2.0. The “last Latency (FR1)” value (CP612-Low, individual rats) was 0.283 and 0.653 and 0.332 and 0.9 and 0.03 and 1.7 and 0.163 and 0.342, the “last-1 Latency (FR1)” value (CP612-Low, individual rats) was 0.433 and 0.6 and 0.237 and 1.0 and 0.3 and 0.258 and 0.24 and 2.0 and the “last-2 Latency (FR1)” value (CP612-Low, individual rats) was 2.1 and 0.145 and 0.143 and 0.9 and 0.5 and 2.5 and 0.8 and 0.017. For the same compound, the “last-3 Latency (FR1)” value (CP612-Low, individual rats) was 4.7 and 1.8 and 0.175 and 0.425 and 1.0 and 0.13 and 0.8 and 0.017, the “AVG Latency (FR1_D1 to D4)” value (CP612-Mid, individual rat) was 1.3 and 0.461 and 0.5 and 1.6 and the “AVG Latency (FR1_Last 2 FR1 days)” value (CP612-Mid, individual rat) was 0.475 and 0.9 and 0.261 and 0.6 and 3.4. The “AVG Latency (FR1_Last 4 FR1 days)” value (CP612-Mid, individual rat) was 0.356 and 0.538 and 0.317 and 0.363 and 1.9, the “AVG Latency (FR3)” value (CP612-Mid, individual rat) was 0.8 and 0.466 and 1.2 and 0.0825 and the “AVG Latency (FR6)” value (CP612-Mid, individual rat) was 0.633 and 1.0 and 0.8 and 3.0 and 4.9.
